Measured values: patent US9073855B2, “BCL-2 selective apoptosis-inducing agents for the treatment of cancer and immune diseases” (AbbVie Inc., priority 2008, dated 2015)

Key:
[1] = molecular target: GST-Bcl-2 (Homo sapiens, UniProt P10415); assay: TR-FRET binding assay, GST-Bcl-2 with F-Bak peptide probe; settings: TR-FRET Binding Affinity, GST-Bcl-2, F-Bak peptide probe
In short: (§1)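 Compounds were serially diluted in DMSO from a 50 μM starting solution (2× the starting concentration; 10% DMSO). Plates were incubated for 3 h at room temperature, and TR-FRET was read with 340/35 nm excitation and emission at 520/525 nm (F-Bak) and 495/510 nm (Tb antibody). Ki values were calculated using Wang's competitive-binding equation.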

[2] = molecular target: GST-Bcl-XL (Homo sapiens, UniProt Q07817); assay: TR-FRET binding assay, GST-Bcl-XL with F-Bak peptide probe; settings: TR-FRET Binding Affinity, GST-Bcl-XL, F-Bak peptide probe
In short: as §1

[3] = tested on: FL5.12/Bcl-2 cells; assay: FL5.12/Bcl-2 cell viability assay under IL-3 withdrawal (CellTitre Glo); type: cell-based, murine; settings: Mus musculus, IL-3 withdrawn 48 hrs, then 24 hrs with compound
Text: FL5.12 is an IL-3 dependent prolymphocytic murine cell line that undergoes apoptosis upon IL-3 withdrawal as a result of the upregulation of pro-apoptotic Bcl-2 proteins such as Bim and Puma. Stable overexpression of anti-apoptotic Bcl-2 protein (FL5.12/Bcl-2) protects against apoptosis induced by IL-3 withdrawal by sequestration of Bim and Puma. […] The ability of compounds to kill FL5.12/Bcl-2 cells upon IL-3 withdrawal is a direct measure of the compounds' ability to inhibit anti-apoptotic Bcl-2 protein function.
Wild type FL5.12/Bcl-2 overexpressing stable transfectants were cultured in RPMI-1640 supplemented with 2 mM L-glutamine, 10% FBS, 1 mM sodium pyruvate, 2 mM HEPES, 1% penicillin/streptomycin (Invitrogen), 57 μM β-ME, and 10% WEHI-3B conditioned medium (source of IL-3) and maintained at 37° C. containing 5% CO2. 1×10^6 cells/ml were washed 1×PBS and resuspended in medium not supplemented with 10% WEHI-3B for 48 hrs prior to cytotoxicity assays. Cells were then treated for an additional 24 hrs in the presence of various concentrations of the indicated compounds. Cell viability was assessed by CellTitre Glo assay (Promega Corp.) according to the manufacturer's recommendations.

Sequence of GST-Bcl-XL (Q07817 whole entry): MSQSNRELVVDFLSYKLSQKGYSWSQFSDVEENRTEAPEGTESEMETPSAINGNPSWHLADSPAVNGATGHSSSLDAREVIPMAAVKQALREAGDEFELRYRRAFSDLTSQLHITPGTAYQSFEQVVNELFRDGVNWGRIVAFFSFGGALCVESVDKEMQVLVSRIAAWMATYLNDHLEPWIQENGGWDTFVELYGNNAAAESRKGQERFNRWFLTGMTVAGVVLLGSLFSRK
Sequence of GST-Bcl-2 (P10415 whole entry): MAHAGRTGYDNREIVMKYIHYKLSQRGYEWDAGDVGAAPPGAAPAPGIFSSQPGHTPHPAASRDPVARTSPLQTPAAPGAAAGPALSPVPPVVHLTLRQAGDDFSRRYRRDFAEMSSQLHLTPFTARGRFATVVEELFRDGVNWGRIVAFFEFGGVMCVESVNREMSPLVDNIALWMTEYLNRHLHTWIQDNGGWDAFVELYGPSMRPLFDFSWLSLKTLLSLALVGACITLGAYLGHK

Row | Compound | Ki [1] [nM] | Ki [2] [nM] | EC50 [3] [nM]
1 | CC1(C)CCC(CN2CCN(c3ccc(C(=O)NS(=O)(=O)c4ccc(NC5CCN(CCCO)CC5)c([N+](=O)[O-])c4)c(Oc4ccc5[nH]ccc5c4)c3)CC2)=C(c2ccc(Cl)cc2)C1 [Example 197, 4-(4-{[2-(4-chlorophenyl)-4,4-dimethylcyclohex-1-en-1-yl]methyl}piperazin-1-yl)-N-[(4-{[1-(3-hydroxypropyl)piperidin-4-yl]amino}-3-nitrophenyl)sulfonyl]-2-(1H-indol-5-yloxy)benzamide] | 0.025 | 4.84 | 6.18
2 | CN(C)CCOc1cccc(-c2ccc(Cl)cc2)c1CN1CCN(c2ccc(C(=O)NS(=O)(=O)c3ccc(NC4CCN(C5CCOCC5)CC4)c([N+](=O)[O-])c3)c(Oc3cccc4[nH]ccc34)c2)CC1 [Example 199, 4-[4-({4′-chloro-3-[2-(dimethylamino)ethoxy]-1,1′-biphenyl-2-yl}methyl)piperazin-1-yl]-2-(1H-indol-4-yloxy)-N-({3-nitro-4-[(1-tetrahydro-2H-pyran-4-ylpiperidin-4-yl)amino]phenyl}sulfonyl)benzamide] | 0.014 | 5.23 | 28.5
3 | CCN(CC)C1CCC(Nc2ccc(S(=O)(=O)NC(=O)c3ccc(N4CCN(CC5=C(c6ccc(Cl)cc6)CC(C)(C)CC5)CC4)cc3Oc3ccc4[nH]ccc4c3)cc2[N+](=O)[O-])CC1 (stereo not drawn) [Example 201, 4-(4-{[2-(4-chlorophenyl)-4,4-dimethylcyclohex-1-en-1-yl]methyl}piperazin-1-yl)-N-[(4-{[4-(diethylamino)cyclohexyl]amino}-3-nitrophenyl)sulfonyl]-2-(1H-indol-5-yloxy)benzamide] | 0.125 | 24.6 | 17.4
4 | CN(C)C1CCC(Nc2ccc(S(=O)(=O)NC(=O)c3ccc(N4CCN(CC5=C(c6ccc(Cl)cc6)CC(C)(C)CC5)CC4)cc3Oc3cccc4[nH]ccc34)cc2[N+](=O)[O-])CC1 (stereo not drawn) [Example 202, 4-(4-{[2-(4-chlorophenyl)-4,4-dimethylcyclohex-1-en-1-yl]methyl}piperazin-1-yl)-N-[(4-{[4-(dimethylamino)cyclohexyl]amino}-3-nitrophenyl)sulfonyl]-2-(1H-indol-4-yloxy)benzamide] | 0.052 | 5.07 | 13.8
5 | CCN(CC)C1CCC(Nc2ccc(S(=O)(=O)NC(=O)c3ccc(N4CCN(CC5=C(c6ccc(Cl)cc6)CC(C)(C)CC5)CC4)cc3Oc3cccc4[nH]ccc34)cc2[N+](=O)[O-])CC1 (stereo not drawn) [Example 203, 4-(4-{[2-(4-chlorophenyl)-4,4-dimethylcyclohex-1-en-1-yl]methyl}piperazin-1-yl)-N-[(4-{[4-(diethylamino)cyclohexyl]amino}-3-nitrophenyl)sulfonyl]-2-(1H-indol-4-yloxy)benzamide] | 0.031 | 4.3 | 22.3
6 | CC1(C)CCC(CN2CCN(c3ccc(C(=O)NS(=O)(=O)c4ccc(N[C@H]5CC[C@H](N6CCOCC6)CC5)c([N+](=O)[O-])c4)c(Oc4cccc5[nH]ccc45)c3)CC2)=C(c2ccc(Cl)cc2)C1 [Example 204, Trans-4-(4-{[2-(4-chlorophenyl)-4,4-dimethylcyclohex-1-en-1-yl]methyl}piperazin-1-yl)-2-(1H-indol-4-yloxy)-N-({4-[(4-morpholin-4-ylcyclohexyl)amino]-3-nitrophenyl}sulfonyl)benzamide] | 0.145 | 42.3 | 27.4
7 | CN(C)CCOc1cccc(-c2ccc(Cl)cc2)c1CN1CCN(c2ccc(C(=O)NS(=O)(=O)c3ccc(NC4CCN(C)CC4)c([N+](=O)[O-])c3)c(Oc3cccc4[nH]ccc34)c2)CC1 [Example 205, 4-[4-({4′-chloro-3-[2-(dimethylamino)ethoxy]-1,1′-biphenyl-2-yl}methyl)piperazin-1-yl]-2-(1H-indol-4-yloxy)-N-({4-[(1-methylpiperidin-4-yl)amino]-3-nitrophenyl}sulfonyl)benzamide] | 0.005 | 3.57 | 37.5
8 | CC(c1ccccc1-c1ccc(Cl)cc1)N1CCN(c2ccc(C(=O)NS(=O)(=O)c3ccc(NC4CCN(C)CC4)c([N+](=O)[O-])c3)c(Oc3cccc4[nH]ccc34)c2)CC1 (stereo not drawn) [Example 206, 4-{4-[1-(4′-chloro-1,1′-biphenyl-2-yl)ethyl]piperazin-1-yl}-2-(1H-indol-4-yloxy)-N-({4-[(1-methylpiperidin-4-yl)amino]-3-nitrophenyl}sulfonyl)benzamide] | 0.083 | > 660 | 5.01
9 | CN(C)C1(CNc2ccc(S(=O)(=O)NC(=O)c3ccc(N4CCN(CC5=C(c6ccc(Cl)cc6)CC(C)(C)CC5)CC4)cc3Oc3ccc4[nH]ccc4c3)cc2[N+](=O)[O-])CCOCC1 [Example 207, 4-(4-{[2-(4-chlorophenyl)-4,4-dimethylcyclohex-1-en-1-yl]methyl}piperazin-1-yl)-N-{[4-({[4-(dimethylamino)tetrahydro-2H-pyran-4-yl]methyl}amino)-3-nitrophenyl]sulfonyl}-2-(1H-indol-5-yloxy)benzamide] | 0.218 | > 660 | 120
10 | CC1(C)CCC(CN2CCN(c3ccc(C(=O)NS(=O)(=O)c4ccc(NC5CCCCC5N)c([N+](=O)[O-])c4)c(Oc4ccc5[nH]ccc5c4)c3)CC2)=C(c2ccc(Cl)cc2)C1 (stereo not drawn) [Example 208, N-({4-[(2-aminocyclohexyl)amino]-3-nitrophenyl}sulfonyl)-4-(4-{[2-(4-chlorophenyl)-4,4-dimethylcyclohex-1-en-1-yl]methyl}piperazin-1-yl)-2-(1H-indol-5-yloxy)benzamide] | 0.589 | > 660 | 264
11 | CN(C)CC#Cc1ccc(-c2ccc(Cl)cc2)c(CN2CCN(c3ccc(C(=O)NS(=O)(=O)c4ccc(NCC5CCOCC5)c([N+](=O)[O-])c4)c(Oc4cccc5[nH]ccc45)c3)CC2)c1 [Example 209, 4-[4-({4′-chloro-4-[3-(dimethylamino)prop-1-ynyl]-1,1′-biphenyl-2-yl}methyl)piperazin-1-yl]-2-(1H-indol-4-yloxy)-N-({3-nitro-4-[(tetrahydro-2H-pyran-4-ylmethyl)amino]phenyl}sulfonyl)benzamide] | 0.267 | > 660 | 139
12 | CC1(C)CCC(CN2CCN(c3ccc(C(=O)NS(=O)(=O)c4ccc(NC5CCN(CCCC(F)(F)F)CC5)c([N+](=O)[O-])c4)c(Oc4cccc5[nH]ccc45)c3)CC2)=C(c2ccc(Cl)cc2)C1 [Example 210, 4-(4-{[2-(4-chlorophenyl)-4,4-dimethylcyclohex-1-en-1-yl]methyl}piperazin-1-yl)-2-(1H-indol-4-yloxy)-N-[(3-nitro-4-{[1-(4,4,4-trifluorobutyl)piperidin-4-yl]amino}phenyl)sulfonyl]benzamide] | 0.624 | > 660 | 257
13 | CN1CCC(O)(CCNc2ccc(S(=O)(=O)NC(=O)c3ccc(N4CCN(CC5=C(c6ccc(Cl)cc6)CC(C)(C)CC5)CC4)cc3Oc3ccc4[nH]ccc4c3)cc2[N+](=O)[O-])CC1 [Example 211, 4-(4-{[2-(4-chlorophenyl)-4,4-dimethylcyclohex-1-en-1-yl]methyl}piperazin-1-yl)-N-[(4-{[2-(4-hydroxy-1-methylpiperidin-4-yl)ethyl]amino}-3-nitrophenyl)sulfonyl]-2-(1H-indol-5-yloxy)benzamide] | 0.009 | 5.61 | 17.1
